Reference: patent publication US12084459B2, “2-(4-{1-[6-(4-isopropyl-phenyl)-imidazo[2,1-b][1,3,4]thiadiazol-2-yl]-piperidin-4-ylmethyl}-piperazin-1-yl)-ethanol and use thereof” (Urifer Ltd., priority 2020, dated 2024)

Tests used:
H358 derived xenografts = H358 derived xenografts in Nude mice; format: in vivo; details: 25 mg/kg daily intraperitoneal in 1% Tween 80, H358 xenografts, FIG. 7
Description: In vivo activity of the E266 (compound (I) of the present application) compared to that of the E260 (EP 2401283) in H358 derived xenografts in immune-compromised (Nude) mice.
In order to compare the relative efficacy of E266 and E260 in inhibiting the development and progression of malignant tumors in-vivo, the activity in xenograft model in mice was examined for both compounds. H358 derived xenografts in immune-compromised were elicited in (Nude) mice. The H358 cells, which are metastatic bronchioloalveolar carcinoma (BAC)-non-small cell lung cancer (NSCLC) cells, were subcutaneously injected to the back of the nude mice. When the developing xenografts reached 100 mm^3 size, the inflicted animals were divided into three groups, 10 mice in each group. One group received daily intraperitoneal injection of the solvent 1% Tween 80. This solvent/emulsifier is biocompatible and is approved for pharmaceutical applications in humans. The second group received daily intraperitoneal injection of 25 mg/kg E260 dissolved in 1% Tween 80, and the third group got daily intraperitoneal injection of 25 mg/kg, E266 dissolved in the 1% Tween 80, solvent. The progression of the elicited xenografts was monitored by measuring twice a week the volumes of the developing tumors.

[1] = system: metastatic adenocarcinoma PC3 prostate Cancer cells; test: viability / killing of PC3 cells; format: cell-based; details: E266 versus E260; compound (I) as tartarate salt in 0.5% Tween-80; FIG. 6
Method: (§1) The compound (I), as tartarate salt was dissolved in 0.5% Tween-80 to affect the viability of several cell lines as follows.
(§2) The effect of the compound (I) (E266) on the growth profile of cancer cells which express Fer was tested. The cells that were tested were: the metastatic colon cancer cell line—SW620, the metastatic pancreatic ductal-adenocarcinoma SU.86.86 cancer cell-line—SU.86.86, the metastatic Triple Negative breast cancer cell line—MDA-MB-231, and the metastatic prostate cancer cell-line—PC3. The effect of the compound (I) (E266) on FS11 cells, a non malignant fibroblastic cell line, was also studied.

[2] = system: metastatic pancreatic ductal adenocarcinoma Su.86.86 cancer cells; test: viability / killing of Su.86.86 cells; format: cell-based; details: E266 versus E260; compound (I) as tartarate salt in 0.5% Tween-80; FIG. 4
Method: as §1, §2

[3] = system: metastatic colon cancer SW620 cells; test: viability / killing of SW620 cells; format: cell-based; details: E266 versus E260; compound (I) as tartarate salt in 0.5% Tween-80; FIG. 3
Method: as §1, §2

## CC(C)c1ccc(-c2cn3nc(N4CCC(CN5CCN(CCO)CC5)CC4)sc3n2)cc1 [Compound E266, 2-(4-{1-[6-(4-isopropyl-phenyl)-imidazo[2,1-b][1,3,4]thiadiazol-2-yl]-piperidin-4-ylmethyl}-piperazin-1-yl)-ethanol]
H358 derived xenografts
  progression of the developing tumors (xenograft volume): managed to halt the progression of the developing tumors
[1]
  killing metastatic adenocarcinoma PC3 prostate Cancer cells: comparable activity
[2]
  killing metastatic pancreatic ductal adenocarcinoma Su.86.86 cancer cells: comparable activity
[3]
  killing metastatic colon cancer SW620 cells: comparable activity
